Activity calls are given as the source filed them. The rule behind the calls is not given here.

A short description of test [1]: Antiplatelet activity against ADP-induced rabbit platelet aggregation assessed as platelet aggregation at 100 ug/ml preincubated for 3 mins by turbidimetric method relative to control. It is filed as functional, Oryctolagus cuniculus.
A short description of test [2]: Antiplatelet activity against arachidonic acid-induced rabbit platelet aggregation assessed as platelet aggregation at 100 ug/ml preincubated for 3 mins by turbidimetric method relative to control. Type of test: functional, Oryctolagus cuniculus.
Test [3] can be described thus: Antiplatelet activity against collagen-induced rabbit platelet aggregation assessed as platelet aggregation at 100 ug/ml preincubated for 3 mins by turbidimetric method relative to control. Type of test: functional, Oryctolagus cuniculus.
A short description of test [4]: Antiplatelet activity against PAF-induced rabbit platelet aggregation assessed as platelet aggregation at 100 ug/ml preincubated for 3 mins by turbidimetric method relative to control. Type of test: functional, Oryctolagus cuniculus.
The test system of test [5] is Aorta. Kind of test: Vasorelaxant activity against 80 mM potassium-induced contractions in rat thoracic aorta assessed as muscle contractions at 1 uM pretreated for 15 mins before potassium administration relative to control. Also noted: scale not given: the % may be the effect or the level left. It is filed as functional.
A short description of test [6]: Antiplatelet activity against arachidonic acid-induced rabbit platelet aggregation assessed as platelet aggregation at 20 ug/ml preincubated for 3 mins by turbidimetric method relative to control. It is filed as functional, Oryctolagus cuniculus.
A short description of test [7]: Antiplatelet activity against arachidonic acid-induced rabbit platelet aggregation assessed as platelet aggregation at 10 ug/ml preincubated for 3 mins by turbidimetric method relative to control. Type of test: functional, Oryctolagus cuniculus.
Test [8] is described as follows: Antiplatelet activity against arachidonic acid-induced rabbit platelet aggregation assessed as platelet aggregation at 5 ug/ml preincubated for 3 mins by turbidimetric method relative to control. Type of test: functional, Oryctolagus cuniculus.
Test [9] is described as follows: Antiplatelet activity against arachidonic acid-induced rabbit platelet aggregation assessed as platelet aggregation at 2 ug/ml preincubated for 3 mins by turbidimetric method relative to control. Type of test: functional, Oryctolagus cuniculus.
Test [10] relates to Aorta. Put plainly: Vasorelaxant activity against 80 mM potassium-induced contractions in rat thoracic aorta assessed as muscle contractions at 100 ug/mL pretreated for 15 mins before potassium administration relative to control. Type of test: functional. Set-up: scale not given: the % may be the effect or the level left.
Test [11] concerns Aorta. Put plainly: Vasorelaxant activity against 3 uM norepinephrine -induced phasic contractions in rat thoracic aorta assessed as muscle contractions at 100 ug/mL pretreated for 15 mins before norepinephrine administration relative to control. Set-up: scale not given: the % may be the effect or the level left. It is filed as functional.
For test [12], the system named is Aorta. Put plainly: Vasorelaxant activity against 3 uM norepinephrine -induced tonic contractions in rat thoracic aorta assessed as muscle contractions at 100 ug/mL pretreated for 15 mins before norepinephrine administration relative to control. It is filed as functional. Set-up: scale not given: the % may be the effect or the level left.
A short description of test [13]: Antiplatelet activity against arachidonic acid-induced rabbit platelet aggregation assessed as platelet aggregation at 1 ug/ml preincubated for 3 mins by turbidimetric method relative to control. It is filed as functional, Oryctolagus cuniculus.
The nature of test [14]: Antiplatelet activity against ADP-induced rabbit platelet aggregation assessed as platelet aggregation at 25 ug/ml preincubated for 3 mins by turbidimetric method relative to control. Type of test: functional, Oryctolagus cuniculus.
Test [15] in a line: Antiplatelet activity against arachidonic acid-induced rabbit platelet aggregation assessed as platelet aggregation at 25 ug/ml preincubated for 3 mins by turbidimetric method relative to control. It is filed as functional, Oryctolagus cuniculus.
A short description of test [16]: Antiplatelet activity against collagen-induced rabbit platelet aggregation assessed as platelet aggregation at 25 ug/ml preincubated for 3 mins by turbidimetric method relative to control. It is filed as functional, Oryctolagus cuniculus.
Test [17] in a line: Antiplatelet activity against PAF-induced rabbit platelet aggregation assessed as platelet aggregation at 25 ug/ml preincubated for 3 mins by turbidimetric method relative to control. It is filed as functional, Oryctolagus cuniculus.
Test [18] deals with Aorta. Kind of test: Effect on resting tension in rat thoracic aorta at 100 ug/mL pretreated for 15 mins. Type of test: functional, tissue-based.
Test [19] is described as follows: Antiplatelet activity against arachidonic acid-induced rabbit platelet aggregation assessed as platelet aggregation at 50 ug/ml preincubated for 3 mins by turbidimetric method relative to control. Type of test: functional, Oryctolagus cuniculus.
For test [20], the system named is Aorta. Put plainly: Vasorelaxant activity against 3 uM norepinephrine -induced phasic contractions in rat thoracic aorta assessed as muscle contractions at 1 uM pretreated for 15 mins before norepinephrine administration relative to control. It is filed as functional. Also noted: scale not given: the % may be the effect or the level left.
In test [21] the test system is Aorta. Put plainly: Vasorelaxant activity against 3 uM norepinephrine -induced tonic contractions in rat thoracic aorta assessed as muscle contractions at 1 uM pretreated for 15 mins before norepinephrine administration relative to control. Set-up: scale not given: the % may be the effect or the level left. Type of test: functional.

In the case of `COc1c(O)ccc2c1-c1c(OC)c(O)cc3c1[C@H](C2)NCC3` [HERNOVINE], the Activity was determined as 87.2% in test [1], 47% in [2], 0% in [3] and 64.1% in test [4].
As to `COC(=O)C1=C(C)NC(C)=C(C(=O)OC)C1c1ccccc1[N+](=O)[O-]` [NIFEDIPINE], the Activity with Aorta [5] is recorded as 0%.
`COc1cc2c(cc1OC)-c1c3c(cc4c1[C@H](C2)N(C)CC4)OCO3` [DICENTRINE]: the Activity turned out to be 4% in [1]; 0% in [2]; 3.2% in test [3]; 7.6% in test [4]; 0% in test [6]; 55.1% in test [7]. For the same molecule, the Activity in test [8] is reported as 77.7%; in test [9], 83.4%.
On to `COc1cc2c(cc1O)C[C@H]1c3c(cc4c(c3-2)OCO4)CCN1C` [CASSYTHICINE], for which the Activity in [1] worked out at 0%; in test [2] it was 0%; in [3] it was 0%; in test [4], 68.1%; in test [6], 0%; in test [7] it was 16.2%. For the same molecule, the Activity in test [8] was 51.4%; in the test with Aorta [10], 112.9%; in the test with Aorta [11] it was 225%; in the test on Aorta [12], 98.9%; in test [9], 69.1%; in test [13] it was 82.5%.
On to `O=C1c2ccccc2-c2c3c(cc4ccnc1c24)OCO3` [LIRIODENINE], for which the Activity in [14] is reported as 5.4%; in [15] it was 40.5%; in [16] it was 5.3%; in test [17], 84.1%.
For the molecule `COc1cc2c(cc1OC)-c1c3c(cc4ccnc(c14)C2=O)OCO3` [DICENTRINONE], the values for the Activity in the test with Aorta [10], in the test with Aorta [11] and in the test with Aorta [12] were 111.1%, 89.7% and 64%, respectively. For the same molecule, in the test with Aorta [18], the outcome was inactive.
As to `COc1ccc2c(c1O)-c1c3c(cc4c1[C@H](C2)N(C)CC4)OCO3` [(S)-BULBOCAPNINE], the Activity is listed as 86.8% in [1], 89.3% in test [2], 83.2% in test [3] and 86.6% in test [4].
Consider `COc1ccc2c(c1OC)-c1c3c(cc4c1[C@H](C2)N(C)CC4)OCO3`, for which the Activity turned out to be 47.9% in [1]; 0% in test [2]; 0% in [3]; 75.1% in [4]; 0% in [19]; 50.4% in test [6]. Besides, the Activity worked out at 72.5% in test [7] and 83.4% in test [8].
On to `CC(=O)Oc1ccccc1C(=O)O` [ASPIRIN], for which the Activity in test [2] turned out to be 0%; in test [14], 77.9%; in test [15], 0%; in [16], 87.8%; in [17], 90.4%.
As to `COc1cc2c(cc1O)C[C@@H]1NCCc3cc4c(c-2c31)OCO4` [ACTINODAPHNINE], the Activity is 0% in test [1]; 0% in test [2]; 0% in test [3]; 0% in test [4]; 0% in test [19]; 42.7% in test [6]. Further, the Activity in test [7] is 60.5%; in [8], 80.3%; in the test on Aorta [10], 41.9%; in the test with Aorta [11], 40.6%; in the test with Aorta [12] it was 15.5%. Further, in the test on Aorta [18], the outcome was inactive.
In the case of `COc1cc2nc(N3CCN(C(=O)c4ccco4)CC3)nc(N)c2cc1OC` [PRAZOSIN], the Activity with Aorta [20] and with Aorta [21] was 0% throughout.
Regarding `COc1ccc2c(c1O)-c1c3c(cc4c1[C@H](C2)NCC4)OCO3` [LAUNOBINE], the Activity was determined as 84.2% in [1], 11.8% in test [2], 29.9% in [3] and 70.7% in [4].
